# Laboratory results from ChEMBL document CHEMBL5252661 (ACS Med Chem Lett, 2023).
# Calls of active or inactive are those of the source. The calls are words filed in the database; no cut-off is given here.
# Columns and labels:
# [1] = Induction of adiponectin secretion in human BMMSC cells in presence of IDX induction medium by ELISA assay; type: functional, cell-based; details: Mesenchymal stem cells
# Mesenchymal stem cells [2] = test: Induction of adiponectin secretion in human BMMSC cells at 10 uM in presence of IDX induction medium by ELISA assay; type: functional, cell-based
# [3] = molecular target: T1, Peroxisome proliferator-activated receptor delta (Homo sapiens) (UniProt Q03181); test: Binding affinity to PPARdelta (unknown origin) upto 10 uM by TR-FRET-based competitive binding assay
# T1 sequence (whole entry): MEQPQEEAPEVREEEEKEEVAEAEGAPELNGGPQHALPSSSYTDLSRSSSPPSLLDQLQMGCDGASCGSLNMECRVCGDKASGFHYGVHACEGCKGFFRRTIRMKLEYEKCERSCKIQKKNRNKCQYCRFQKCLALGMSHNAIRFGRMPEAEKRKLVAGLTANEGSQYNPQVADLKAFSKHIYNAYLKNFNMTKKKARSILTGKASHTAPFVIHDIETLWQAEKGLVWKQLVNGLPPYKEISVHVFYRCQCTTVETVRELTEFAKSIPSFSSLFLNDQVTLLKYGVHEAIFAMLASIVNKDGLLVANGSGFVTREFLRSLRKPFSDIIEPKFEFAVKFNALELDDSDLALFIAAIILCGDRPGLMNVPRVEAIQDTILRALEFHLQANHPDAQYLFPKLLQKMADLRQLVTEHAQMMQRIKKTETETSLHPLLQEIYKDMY
# [4] = molecular target: T2, Peroxisome proliferator-activated receptor alpha (Homo sapiens) (UniProt Q07869); test: Binding affinity to PPARalpha (unknown origin) upto 10 uM by TR-FRET-based competitive binding assay
# T2 sequence (whole entry): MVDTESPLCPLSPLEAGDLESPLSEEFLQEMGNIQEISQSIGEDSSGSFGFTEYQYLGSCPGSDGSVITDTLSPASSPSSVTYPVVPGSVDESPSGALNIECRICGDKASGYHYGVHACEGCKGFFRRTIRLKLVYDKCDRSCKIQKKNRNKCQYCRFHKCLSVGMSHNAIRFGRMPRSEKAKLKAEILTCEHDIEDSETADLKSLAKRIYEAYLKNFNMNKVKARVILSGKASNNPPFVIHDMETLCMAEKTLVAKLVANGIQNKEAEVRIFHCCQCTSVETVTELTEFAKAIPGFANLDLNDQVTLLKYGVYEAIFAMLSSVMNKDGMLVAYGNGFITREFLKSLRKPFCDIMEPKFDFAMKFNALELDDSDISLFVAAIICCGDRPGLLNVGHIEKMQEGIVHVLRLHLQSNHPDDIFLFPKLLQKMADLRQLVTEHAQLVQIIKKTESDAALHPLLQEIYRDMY
# [5] = Induction of adiponectin secretion in human BMMSC cells assessed as fold increase in adiponectin level at 10 uM in presence of IDX induction medium by ELISA assay; type: functional, Mesenchymal stem cells
# Mesenchymal stem cells [6] = test: Induction of adiponectin secretion in human BMMSC cells assessed as increase in size of lipid droplets at 10 uM in presence of IDX induction medium by Oil Red O staining based inverted microscopic analysis; type: functional, cell-based
# Mesenchymal stem cells [7] = test: Induction of adiponectin secretion in human BMMSC cells assessed as increase in number of lipid droplets at 10 uM in presence of IDX induction medium by Oil Red O staining based inverted microscopic analysis; type: functional, cell-based
# [8] = molecular target: T3, Peroxisome proliferator-activated receptor gamma (Homo sapiens, UniProt P37231); test: Partial agonist activity at PPARgamma (unknown origin) by TR-FRET-based competitive binding assay
# T3 sequence (P37231 whole entry): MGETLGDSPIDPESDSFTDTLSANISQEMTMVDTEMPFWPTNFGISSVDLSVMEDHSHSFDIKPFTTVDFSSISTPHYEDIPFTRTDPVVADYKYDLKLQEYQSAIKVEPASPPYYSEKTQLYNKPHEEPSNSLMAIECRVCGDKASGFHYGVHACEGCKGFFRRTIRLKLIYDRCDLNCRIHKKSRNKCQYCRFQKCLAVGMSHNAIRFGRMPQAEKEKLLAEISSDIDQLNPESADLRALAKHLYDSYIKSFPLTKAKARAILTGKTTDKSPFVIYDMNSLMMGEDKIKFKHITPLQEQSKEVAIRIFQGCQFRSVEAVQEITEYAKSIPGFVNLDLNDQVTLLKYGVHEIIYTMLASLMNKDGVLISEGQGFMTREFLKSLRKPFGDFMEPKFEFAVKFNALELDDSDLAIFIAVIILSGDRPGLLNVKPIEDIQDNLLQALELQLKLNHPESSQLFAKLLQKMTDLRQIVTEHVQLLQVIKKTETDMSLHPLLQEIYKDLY
# [9] = molecular target: T3, Peroxisome proliferator-activated receptor gamma; test: Binding affinity to PPARgamma (unknown origin) by TR-FRET-based competitive binding assay
# Mesenchymal stem cells [10] = test: Potency index, ratio of EC50 for chrysin to EC50 for test compound for induction of adiponectin secretion in human BMMSC cells; type: functional
# Mesenchymal stem cells [11] = test: Upregulation of PPARgamma mRNA expression in human BMMSC cells at 10 uM in presence of IDX induction medium by qRT-PCR assay; type: functional, cell-based
# Mesenchymal stem cells [12] = test: Upregulation of FABP4 mRNA expression in human BMMSC cells at 10 uM in presence of IDX induction medium by qRT-PCR assay; type: functional, cell-based
# Mesenchymal stem cells [13] = test: Upregulation of ADIPOQ mRNA expression in human BMMSC cells at 10 uM in presence of IDX induction medium by qRT-PCR assay; type: functional, cell-based
# [14] = molecular target: T3, Peroxisome proliferator-activated receptor gamma; test: Agonist activity at PPARgamma LBD (unknown origin) assessed as increase in recruitment of coactivator RAP250 to PPARgamma LBD by TR-FRET-based nuclear receptor coactivator assay
EC50 [1] [µM],Activity [3],Activity [4],Structure (SMILES),Activity (Mesenchymal stem cells [2]),fold change (FC) [5],also measured
0.5,,,CCc1ccc(CCOc2ccc(CC3SC(=O)NC3=O)cc2)nc1 (centres undefined) [PIOGLITAZONE],,,
,inactive,inactive,C=CCOc1cc(O)cc2oc(-c3ccccc3)cc(=O)c12,Active,,
,inactive,inactive,O=c1cc(-c2ccccc2)oc2cc(OCc3ccccc3)cc(OCc3ccccc3)c12,Active,,
,inactive,inactive,COc1cc(OCc2ccccc2)cc2oc(-c3ccccc3)cc(=O)c12,,,
77.7,inactive,inactive,O=c1cc(-c2ccccc2)oc2cc(O)cc(O)c12 [CHRYSIN],Active,2.3,Activity (Mesenchymal stem cells [6]): Active; Activity (Mesenchymal stem cells [7]): Active
,inactive,inactive,O=c1cc(-c2ccccc2)oc2cc(OCc3ccccc3)cc(O)c12,Active,,
,inactive,inactive,CC(C)=CCOc1cc(OCc2ccccc2)cc2oc(-c3ccccc3)cc(=O)c12,Active,3.3,
4.7,,,CCCc1nc2c(C)cc(-c3nc4ccccc4n3C)cc2n1Cc1ccc(-c2ccccc2C(=O)O)cc1,,,Ki [8]: 1.08 µM
,inactive,inactive,O=c1cc(-c2ccccc2)oc2cc(O)cc(OCc3ccccc3)c12,Active,,
,inactive,inactive,O=c1cc(-c2ccccc2)oc2cc(O)cc(OCc3ccc(Cl)cc3)c12,Active,,
,inactive,inactive,O=c1cc(-c2ccccc2)oc2cc(O)cc(OCc3ccc(F)cc3)c12,Active,,
8.5,inactive,inactive,CC(C)=CCOc1cc(OCc2ccccc2)c2c(=O)cc(-c3ccccc3)oc2c1,Active,3.8,Ki [9]: 0.55 µM; Ratio EC50 (Mesenchymal stem cells [10]): 9; Activity (Mesenchymal stem cells [11]): Active; Activity (Mesenchymal stem cells [12]): Active; Activity (Mesenchymal stem cells [6]): Active; Activity (Mesenchymal stem cells [13]): Active; EC50 [14]: 19.6 µM; Activity (Mesenchymal stem cells [7]): Active
4,inactive,inactive,CC(C)=CCOc1cc(OCC=C(C)C)c2c(=O)cc(-c3ccccc3)oc2c1,Active,4.8,Ki [9]: 0.37 µM; Ratio EC50 (Mesenchymal stem cells [10]): 9; Activity (Mesenchymal stem cells [11]): Active; Activity (Mesenchymal stem cells [12]): Active; Activity (Mesenchymal stem cells [6]): Active; Activity (Mesenchymal stem cells [13]): Active; Activity (Mesenchymal stem cells [7]): Active
